The values that follow come from patent publication US9187426B2, “Organic compounds” (Novartis AG, priority 2008, dated 2015).

Structures can show the parent of a compound that is named as a salt.

Regarding `O=C(NCc1ccccn1)c1ccnc(N2CCN(Cc3ccc(F)cc3)C2=O)c1` (as salt: hydrochloride) [Example 15.3, 2-(3-(4-fluorobenzyl)-2-oxoimidazolidin-1-yl)-N-(pyridin-2-ylmethyl)isonicotinamide dihydrochloride], the melting point is 141 to 143 °C.

In the case of `O=C(NCc1ccc(C(F)(F)F)cc1)c1ccnc(NC(=O)c2ccccc2)c1` [Example 1, 2-benzamido-N-(4-(trifluoromethyl)benzyl)isonicotinamide], the melting point fell in the range of 165 to 168 °C.

Regarding `Cc1ccc(CNC(=O)c2ccnc(NC(=O)c3ccccc3)c2)cc1` [Example 1.2, 2-benzamido-N-(4-methylbenzyl)isonicotinamide], the melting point was in the range of 135 to 138 °C.

As to `O=C(Nc1cc(-c2nc3ccccc3[nH]2)ccn1)c1ccccc1` [Example 4, N-(4-(1H-benzo[d]imidazol-2-yl)pyridin-2-yl)benzamide], the melting point was 145 to 146 °C.

As for `O=C(NCc1ccccc1)c1ccnc(NC(=O)c2ccccc2)c1` [Example 5, 2-benzamido-N-benzylisonicotinamide], the melting point is 174 to 176 °C.

Regarding `O=C(NCc1ccccc1)c1ccnc(NC(=O)c2ccc(OC(F)(F)F)cc2)c1` [Example 5.1, N-benzyl-2-(4-trifluoromethoxybenzoylamino)isonicotinamide], the melting point lay within 151 to 153 °C.

As for `O=C(NCc1ccccc1)c1ccnc(NC(=O)c2ccc(C(F)(F)F)cc2)c1` [Example 5.2, N-benzyl-2-(4-trifluoromethylbenzoylamino)isonicotinamide], the melting point lay within 181 to 183 °C.

`O=C(CCc1ccccc1)Nc1cc(C(=O)NCc2ccccc2)ccn1` [Example 5.3, N-benzyl-2-(3-phenylpropanamido)isonicotinamide] registered a melting point of 177 to 179 °C.

Compound `O=C(NCc1ccccc1)c1ccnc(NC(=O)c2ccccc2F)c1` [Example 6, N-benzyl-2-(2-fluorobenzamido)isonicotinamide] returned a melting point of 175 to 176 °C.

In turn, `O=C(NCc1ccccc1)c1ccnc(NC(=O)c2cccc(F)c2)c1` [Example 6.1, N-benzyl-2-(3-fluorobenzamido)isonicotinamide] showed a melting point of 140 to 143 °C.

With `O=C(NCc1ccccc1)c1ccnc(NC(=O)C2CCCC2)c1` [Example 6.2, N-benzyl-2-(cyclopentanecarboxamido)isonicotinamide], the melting point fell in the range of 55 to 57 °C.

Take `O=C(NCc1ccccc1)c1ccnc(NC(=O)c2cccs2)c1` [Example 6.3, N-benzyl-2-(thiophene-2-carboxamido)isonicotinamide]: the melting point was in the range of 160 to 162 °C.

`COc1ccc(C(=O)Nc2cc(C(=O)NCc3ccccc3)ccn2)cc1` [Example 6.5, N-benzyl-2-(4-methoxybenzamido)isonicotinamide] displayed a melting point of 165 to 166 °C.

In turn, `COc1ccccc1C(=O)Nc1cc(C(=O)NCc2ccccc2)ccn1` [Example 6.6, N-benzyl-2-(2-methoxybenzamido)isonicotinamide] had a melting point of 205 to 207 °C.

`O=C(NCc1ccccc1)c1ccnc(NC(=O)c2cccc3ccccc23)c1` [Example 6.7, 2-(1-naphthamido)-N-benzylisonicotinamide] registered a melting point of 65 to 67 °C.

In turn, `O=C(NCc1ccccc1)c1ccnc(NC(=O)c2cc(F)ccc2Cl)c1` [Example 6.9, N-benzyl-2-(2-chloro-5-fluorobenzamido)isonicotinamide] showed a melting point of 180 to 181 °C.

The compound `N#Cc1ccc(C(=O)Nc2cc(C(=O)NCc3ccccc3)ccn2)cc1` [Example 6.10, N-benzyl-2-(4-cyanobenzamido)isonicotinamide] registered a melting point of 180 to 181 °C.

`CS(=O)(=O)c1cccc(C(=O)Nc2cc(C(=O)NCc3ccccc3)ccn2)c1` [Example 6.13, N-benzyl-2-(3-(methylsulfonyl)benzamido)isonicotinamide] gave a melting point of 170 to 171 °C.

Take `O=C(NCc1ccccc1)c1ccnc(NC(=O)c2ccc(F)cc2)c1` [Example 6.14, N-benzyl-2-(4-fluorobenzamido)isonicotinamide]: the melting point is 170 to 171 °C.

For `O=C(NCc1ccccc1)c1ccnc(NC(=O)c2cccc(C(F)(F)F)c2)c1` [Example 6.15, N-benzyl-2-(3-(trifluoromethyl)benzamido)isonicotinamide], the melting point fell in the range of 126 to 128 °C.

Consider `COc1cc(C(=O)NCc2ccccc2)cc(NC(=O)c2ccccc2)n1` [Example 6.17, 2-benzamido-N-benzyl-6-methoxyisonicotinamide], for which the melting point was 132 to 133 °C.

Take `O=C(NCc1ccccc1)c1cc[n+]([O-])c(NC(=O)c2ccccc2)c1` [Example 7, 2-benzamido-N-benzylisonicotinamide-1-N-oxide]: the melting point is 198 to 201 °C.

For the compound `O=C(NCc1ccccc1)c1cc(O)nc(NC(=O)c2ccccc2)c1` [Example 8, 2-benzamido-N-benzyl-6-hydroxyisonicotinamide], the melting point is 257 °C (dec.).

With `Cc1c[nH]c(-c2ccnc(NC(=O)c3ccccc3)c2)n1` [Example 10, N-(4-(4-methyl-1H-imidazol-2-yl)pyridin-2-yl)benzamide], the melting point lay within 133 to 135 °C.

Compound `CCCc1c[nH]c(-c2ccnc(NC(=O)c3ccccc3)c2)n1` [Example 10.1, N-(4-(4-propyl-1H-imidazol-2-yl)pyridin-2-yl)benzamide] displayed a melting point of 95 to 97 °C.

Consider `CC(C)Cc1c[nH]c(-c2ccnc(NC(=O)c3ccccc3)c2)n1` [Example 10.3, N-(4-(4-isobutyl-1H-imidazol-2-yl)pyridin-2-yl)benzamide], for which the melting point was 103 to 105 °C.

The compound `O=C(Nc1cc(-c2nc(-c3ccccc3)c[nH]2)ccn1)c1ccccc1` [Example 10.5, N-(4-(4-phenyl-1H-imidazol-2-yl)pyridin-2-yl)benzamide] came in with a melting point of 265 to 267 °C.

As to `O=C(Nc1cc(-c2nnc(-c3ccccc3)o2)ccn1)c1ccccc1` [Example 11, N-(4-(5-phenyl-1,3,4-oxadiazol-2-yl)pyridin-2-yl)benzamide], the melting point fell in the range of 151 to 155 °C.

For the compound `O=C(Nc1cc(-c2nnc(Cc3ccccc3)o2)ccn1)c1ccccc1` [Example 11.1, N-[4-(5-benzyl-[1,3,4]oxadiazol-2-yl)-pyridin-2-yl]benzamide], the melting point is 187 to 189 °C.

`O=C(Nc1cc(-c2nc(Cc3ccccc3)no2)ccn1)c1ccccc1` [Example 12, N-[4-(3-benzyl-[1,2,4]oxadiazol-5-yl)-pyridin-2-yl]benzamide]: the melting point lay within 150 to 151 °C.

The compound `CNC(=O)c1ccnc(N2CCN(Cc3ccc(F)cc3)C2=O)c1` [Example 13, 2-(3-(4-fluorobenzyl)-2-oxoimidazolidin-1-yl)-N-methylisonicotinamide] displayed a melting point of 118 to 120 °C.

`O=C(NCc1cncs1)c1ccnc(N2CCN(Cc3ccc(F)cc3)C2=O)c1` [Example 14.1, 2-(3-(4-fluorobenzyl)-2-oxoimidazolidin-1-yl)-N-(thiazol-5-ylmethyl)isonicotinamide] came in with a melting point of 148 to 150 °C.

Take `O=C(NCc1nccs1)c1ccnc(N2CCN(Cc3ccc(F)cc3)C2=O)c1` [Example 14.3, 2-(3-(4-fluorobenzyl)-2-oxoimidazolidin-1-yl)-N-(thiazol-2-ylmethyl)isonicotinamide]: the melting point is 123 to 125 °C.

`O=C(NCc1ncco1)c1ccnc(N2CCN(Cc3ccc(F)cc3)C2=O)c1` [Example 14.4, 2-(3-(4-fluorobenzyl)-2-oxoimidazolidin-1-yl)-N-(oxazol-2-ylmethyl)isonicotinamide] showed a melting point of 148 to 150 °C.

Regarding `Cn1ccc(CNC(=O)c2ccnc(N3CCN(Cc4ccc(F)cc4)C3=O)c2)n1` [Example 14.6, 2-(3-(4-fluorobenzyl)-2-oxoimidazolidin-1-yl)-N-((1-methyl-1H-pyrazol-3-yl)methyl)isonicotinamide], the melting point fell in the range of 79 to 81 °C.

`Cc1nn(C)c(C)c1CNC(=O)c1ccnc(N2CCN(Cc3ccc(F)cc3)C2=O)c1` [Example 14.7, 2-(3-(4-fluorobenzyl)-2-oxoimidazolidin-1-yl)-N-((1,3,5-trimethyl-1H-pyrazol-4-yl)methyl)isonicotinamide]: the melting point lay within 179 to 181 °C.

On to `Cn1cc(CNC(=O)c2ccnc(N3CCN(Cc4ccc(F)cc4)C3=O)c2)cn1` [Example 14.8, 2-(3-(4-fluorobenzyl)-2-oxoimidazolidin-1-yl)-N-((1-methyl-1H-pyrazol-4-yl)methyl)isonicotinamide], for which the melting point lay in the range of 165 to 166 °C.

In turn, `O=C(NCc1cc[nH]n1)c1ccnc(N2CCN(Cc3ccc(F)cc3)C2=O)c1` [Example 14.9, N-((1H-pyrazol-3-yl)methyl)-2-(3-(4-fluorobenzyl)-2-oxoimidazolidin-1-yl)isonicotinamide] gave a melting point of 178 to 180 °C.

For `Cc1cc(CNC(=O)c2ccnc(N3CCN(Cc4ccc(F)cc4)C3=O)c2)nn1C` [Example 14.11, N-((1,5-dimethyl-1H-pyrazol-3-yl)methyl)-2-(3-(4-fluorobenzyl)-2-oxoimidazolidin-1-yl)isonicotinamide], the melting point was in the range of 150 to 152 °C.

As to `O=C(NC[C@H](O)c1ccccc1)c1ccnc(N2CCN(Cc3ccc(F)cc3)C2=O)c1` [Example 14.12, (R)-2-(3-(4-fluorobenzyl)-2-oxoimidazolidin-1-yl)-N-(2-hydroxy-2-phenylethyl)isonicotinamide], the melting point fell in the range of 97 to 99 °C.

Take `Cc1nc(CNC(=O)c2ccnc(N3CCN(Cc4ccc(F)cc4)C3=O)c2)cs1` [Example 14.13, 2-(3-(4-fluorobenzyl)-2-oxoimidazolidin-1-yl)-N-((2-methylthiazol-4-yl)methyl)isonicotinamide]: the melting point was in the range of 76 to 78 °C.

Compound `O=C(NCc1ccon1)c1ccnc(N2CCN(Cc3ccc(F)cc3)C2=O)c1` [Example 14.14, 2-(3-(4-fluorobenzyl)-2-oxoimidazolidin-1-yl)-N-(isoxazol-3-ylmethyl)isonicotinamide] gave a melting point of 127 to 129 °C.

One may read the melting point as the temperature of the solid-liquid transition.
